PMC12663132, “Assessment of cytotoxicity of some synthetic compounds against breast carcinoma spheroids with subsequent analysis of pro-apoptotic and gene expression” (Scientific Reports, 2025)

How the values were obtained:
[1] = test system: MCF7; assay: Cytotoxicity on MCF7 monolayers (MTT assay); conditions: Homo sapiens, MCF7, 72 h, read-out: Mean of % cytotoxicity ± SD
Procedure: (§1) Eighty pre-plated synthetic chemical compounds were screened on two human cell lines: MCF7 (ATCC® HTB-22™), a Caucasian breast adenocarcinoma model, and hTERT-RPE-1 (ATCC® CRL-4000™), a normal retinal epithelial cell line immortalized by hTERT telomerase. […] The cells were cultured in DMEM-F12 medium supplemented with L-glutamine and 10% fetal bovine serum, all were purchase from Biowest (Biotechnology company in Nuaillé, France), and maintained in a controlled incubator environment set at 37 °C with 5% CO2 and 95% humidity.
MCF7 cells were seeded in flat-bottom 96-well plates with a concentration of 20,000 cells/well, and were left overnight. The compounds were tested at a final concentration of 50 µM. Doxorubicin was used as a positive control and 0.5% DMSO as a negative control. The treatment duration was 72 h. The cytotoxicity was then assessed using the MTT assay, as described by Mosmann[43].

[2] = test system: MCF7 3D spheroids; assay: Cytotoxicity on MCF7 3D multicellular spheroids (acid phosphatase method); conditions: Homo sapiens, MCF7, 120 h, read-out: Mean of % cytotoxicity ± S.D
Procedure: as §1
3-D spheroid models were generated from MCF7 cancer and hTERT-RPE1 normal cells were seeded at 10,000 and 50,000 cells/well, respectively, in poly-HEMA coated round bottom plates according to the protocol previously mentioned[44]. The cells were incubated for 5 days to generate the spheroids with diameter of 500 ± 20 µm. The spheroids were imaged using Olympus S100, U-CMAD3 camera connected to Olympus inverted microscope and the diameter of the spheroids was measured using Cellscen-Entry software. Test compounds were added in triplicate to a final concentration of 50 µM and were incubated for 120 h. […] At the end of incubation, cytotoxicity was determined using the acid phosphatase method[45]. After washing twice with 250 μL PBS buffer, 100 μL of 0.1 M sodium citrate, 0.1% Triton X-100, p-nitrophenylphosphate (2 mg/ml) (Pierce Biotechnology Inc., Rockford, IL) was added to each well and incubated for 1.5 h at 37 °C. After incubation, 10 μL of 1N NaOH stop solution was added to each well, and absorbance was read at 405 nm. Cytotoxicity was calculated according to the following equation:

SMILES	cytotoxicity at 50 µM [1] [%]	cytotoxicity at 50 µM [2] [%]
FC(F)(F)c1ccnc(NCc2ccco2)n1 [H11, N2-(2-furylmethyl)-4-(trifluoromethyl)pyrimidin-2-amine]	0	68.5 ± 0.65
O=C(NNC(=O)c1ccc(OC(F)(F)F)cc1)c1ccc(Cl)cc1 [C11, N'1-(4-chlorobenzoyl)-4-(trifluoromethoxy)benzene-1-carbohydrazide]	83.1 ± 1.17	66.5 ± 0.24
CC(C)=NOC(=O)c1scc(S(C)(=O)=O)c1Cl [B07, 3-chloro-2-({[(1methylethylidene)amino]oxy}carbonyl)-4-(methylsulfonyl)thiophene]	0	34.9 ± 1.7
Cc1ccc(S(=O)(=O)CCNC(=O)c2c(-c3c(Cl)cccc3Cl)noc2C)cc1 [F07, N4-{2-[(4-methylphenyl)sulfonyl]ethyl}-3-(2,6-dichlorophenyl)-5-methylisoxazole-4-carboxamide]	4.4 ± 0.118	54.2 ± 0.53
O=[N+]([O-])c1cc(C(F)(F)F)ccc1-n1ccc(C(F)(F)F)n1 [B11, 1-[2-nitro-4-(trifluoromethyl)phenyl]-3-(trifluoromethyl)-1H-pyrazole]	0	30.5 ± 0.53
COc1ccc(NNC(=O)c2c(-c3c(F)cccc3Cl)noc2C)cc1 [D10, 3-(2-chloro-6-fluorophenyl)-N'-(4-methoxyphenyl)-5-methyl-4-isoxazolecarbohydrazide]	52.1 ± 2.11	51.7 ± 1.1
Cc1c(NCN2C(=O)CCC2=O)cc2c(c1[N+](=O)[O-])C(C)(C)CC2(C)C [G09, 1-{[(1,1,3,3,6-pentamethyl-7-nitro-2,3-dihydro-1H-inden-5-yl)amino]methyl}pyrrolidine-2,5-dione]	100 ± 0.005	66.5 ± 1.1
CN(C)C=C1Cc2ccccc2C1=O [E05, 2-[(dimethylamino)methylidene]indan-1-one]	47.5 ± 6.2	41.4 ± 3.6
CC(=O)Nc1ccc(-c2ccccc2)cc1 [D05, N-[1,1'-biphenyl]-4-ylacetamide]	49.7 ± 4.1	50.9 ± 2.4
CS(=O)(=O)CC(N)=S [H05, 2-(methylsulfonyl)ethanethioamide]	24.1 ± 1.17	19.3 ± 0.5
O=C1CNC(=S)N1CCOc1ccc(Cl)cc1 [F05, 3-[2-(4-chlorophenoxy)ethyl]-2-thioxoimidazolidin-4-one]	96.9 ± 1.4	31.6 ± 0.8
Cc1ccc(OCC(O)CN2CCC(C(N)=O)CC2)c([N+](=O)[O-])c1 (stereo not shown) [D09, 1-[2-hydroxy-3-(4-methyl-2-nitrophenoxy)propyl]piperidine-4-carboxamide]	7.6 ± 0.2	50 ± 0.35
Cc1ccc2[nH]c(SCC(=O)NC3Cc4ccccc4C3)nc2c1 [H03, N-(2,3-dihydro-1H-inden-2-yl)-2-[(5-methyl-1H-benzimidazol-2-yl)thio]acetamide]	88.5 ± 5.8	15.8 ± 0.11
Cc1nc(-c2ccc(S(=O)(=O)Nc3ccc4c(c3)OCCO4)s2)cs1 [G04, N-(2,3-dihydro-1,4-benzodioxin-6-yl)-5-(2-methyl-1,3-thiazol-4-yl)-2-thiophenesulfonamide]	0	6.3 ± 0.3
Cc1cc(Br)c(NC(=O)C(Cl)Cl)c(Br)c1 [H07, N1-(2,6-dibromo-4-methylphenyl)-2,2dichloroacetamide]	65.3 ± 2.3	40.6 ± 0.7
Cn1c(=NN=c2oc3ccccc3n2C)oc2ccccc21 [C03, 1,2-di(3-methyl-2,3-dihydro-1,3-benzoxazol-2-yliden)hydrazine]	86.6 ± 9.3	3.4 ± 0.17

SMILES	cytotoxicity at 50 µM [1] [%]	cytotoxicity at 50 µM [2] [%]
Cc1nnsc1-c1nnc(-c2ccccc2C(F)(F)F)o1 [F09, 2-(4-methyl-1,2,3-thiadiazol-5-yl)-5-[2-(trifluoromethyl)phenyl]-1,3,4-oxadiazole]	9.9 ± 3.8	14.2 ± 0.5
COc1cc(-n2c(SC)nc3ccccc3c2=O)c(OC)cc1Cl [A02, 3-(4-chloro-2,5-dimethoxyphenyl)-2-(methylthio)-3,4-dihydroquinazolin-4-one]	94.3 ± 0.06	67.1 ± 3.3
CC1(C)CC(=O)C2=C(C1)OC(N)=C(C#N)C2c1ccc(Cl)cc1 (stereo not shown) [E11, 2-amino-4-(4-chlorophenyl)-7,7-dimethyl-5-oxo-5,6,7,8-tetrahydro-4H-chromene-3-carbonitrile]	93.7 ± 1.29	66.4 ± 1.9
Clc1ccc(OCCCCCCCCCCOc2ccc(Cl)cc2)cc1 [H02, 1,10-bis(4-chlorophenoxy)decane]	68.7 ± 2.7	3.5 ± 0.8
CCOC1=NC(=Cc2[nH]c(OCC)c(CC(=O)OC)c2C(=O)OC)C(C(=O)OC)=C1CC(=O)OC [E02, methyl 5-ethoxy-2-{[5-ethoxy-3-(methoxycarbonyl)-4-(2-methoxy-2-oxoethyl)-2H-pyrrol-2-yliden]methyl}-4-(2-methoxy-2-oxoethyl)-1H-pyrrole-3-carboxylate]	83.2 ± 1.2	-10.8 ± 0.7
NNC(=O)Cc1ccccc1 [B10, 2-phenylacetohydrazide]	0	48.2 ± 0.23
Cc1cc(C)n(-c2ccc(S(N)(=O)=O)cc2)n1 [C07, 4-(3,5-dimethyl-1H-pyrazol-1-yl)benzene-1-sulfonamide]	0	55.4 ± 2.3
CCOc1nc2ccccc2nc1OCC [E04, 2,3-diethoxyquinoxaline]	62.6 ± 3.1	42 ± 1.1
O=C(Nc1cccc(-c2ncon2)c1)C(Cl)(Cl)Cl [D03, 2,2,2-trichloro-N-[3-(1,2,4-oxadiazol-3-yl)phenyl]acetamide]	11.1 ± 0.9	23.5 ± 0.17
COc1cc(C(F)(F)F)nc2ccc(C#CCOC(=O)c3ccccc3)cc12 [G03, 3-[4-methoxy-2-(trifluoromethyl)-6-quinolyl]prop-2-ynyl benzoate]	49.8 ± 2.9	21.3 ± 0.6
COc1cc(-n2c(S)nnc2CCc2nc(-c3ccc(Cl)cc3)no2)c(OC)cc1Cl [D07, 4-(4-chloro-2,5-dimethoxyphenyl)-5-{2-[3-(4-chlorophenyl)-1,2,4-oxadiazol-5-yl]ethyl}-4H-1,2,4-triazole-3-thiol]	88.7 ± 0.23	50.1 ± 2.3
O=C(NCCc1ccncc1)C(F)(F)F [B03, N1-[2-(4-pyridyl)ethyl]-2,2,2-trifluoroacetamide]	0	25.5 ± 0.11
COc1ccc(C(=O)NCc2ccco2)cc1OC [C06, N-(2-furylmethyl)-3,4-dimethoxybenzamide]	0	35.8 ± 0.23
COc1c(Cl)cc([N+](=O)[O-])c(OC)c1C(=O)O [D06, 3-chloro-2,6-dimethoxy-5-nitrobenzoic acid]	10.4 ± 0.6	40.8 ± 2.1
N#CCc1ccc(NC(=O)Nc2ccc(OC(F)(F)F)cc2)cc1 [G08, N-[4-(cyanomethyl)phenyl]-N'-[4-(trifluoromethoxy)phenyl]urea]	82.8 ± 0.76	56.2 ± 3
O=[N+]([O-])c1ccc(N2CCC(n3cccc3)CC2)cc1 [A04, 1-(4-nitrophenyl)-4-(1H-pyrrol-1-yl)piperidine]	2.5 ± 0.35	43.1 ± 0.23
